{
  "source": "paper PMC6017025",
  "about": "“Pharmacokinetics of Schizandrin and Its Pharmaceutical Products Assessed Using a Validated LC–MS/MS Method” (Molecules : A Journal of Synthetic Chemistry and Natural …, 2018)",
  "key": {"[1]": {"assay": "Stability of schizandrin stock solution", "format": "physicochemical", "settings": "up to 1 month at −20 °C", "experimental": "(§1) Three concentrations (low, medium, and high) were evaluated for stability. The schizandrin concentrations of 5, 50, and 500 ng/mL were used in the method validation."}, "[2]": {"assay": "Stability of schizandrin in rat plasma (method validation)", "format": "in vitro ADME", "settings": "for Autosampler Stability / Short-Term Stability / Freeze-Thaw Stability / Long-Term Stability: rat plasma, in % (unit assumed); for Autosampler Stability: 10 °C for 24 h in autosampler; for Short-Term Stability: room temperature for 12 h; for Long-Term Stability: −20 °C for 1 month", "experimental": "as §1\nStability was evaluated under four conditions: […]; […]; long-term stability kept at −80 °C for 1 month; and freeze-thaw stability: three samples were frozen and stored at −20 °C for 24 h and then thawed at room temperature. After repeating this cycle three times, the samples were analyzed by UHPLC-MS/MS."}, "[3]": {"assay": "Pharmacokinetics of schizandrin in plasma of freely moving rats after i.v./oral schizandrin or oral S. chinensis product (LC-MS/MS, noncompartmental analysis)", "format": "in vivo, rat", "experimental": "All experimental protocols involving animals were reviewed and approved by the Institutional Animal Care and Use Committee (IACUC number: 1060813) of National Yang-Ming University. Male Sprague-Dawley rats were obtained from the Laboratory Animal Center of the National Yang-Ming University, Taipei, Taiwan. The animals had free access to food (laboratory rodent diet 5P14, PMI Feeds, Richmond, IN) and water. Six Sprague-Dawley rats (220–240 g) were anesthetized with pentobarbital (50 mg/kg, i.p.) for cannulation. Surgical sites were shaved and disinfected with 70% ethanol solution, and a polyethylene tube (PE50) was implanted into the right jugular vein for collecting blood samples. The cannula were exteriorized and fixed in the dorsal region of the neck. Patency of the tube was maintained by flushing with heparinized saline (20 IU/mL). Rats were allowed to recover 24 h prior to drug administration. Schizandrin was dissolved in 10%DMSO and triply deionized water and administered by gastric gavage at a dose of 10 mg/kg. Schizandrin was dissolved in 10%ethanoland triply deionized water and administered by intravenous injection at a dose of 10 mg/kg. The S. chinensis pharmaceutical product was dissolved in triply deionized water and administered by gastric gavage at a dose of 3 g/kg and 10 g/kg (equivalent to 5.2 mg/kg and 17.3 mg/kg schizandrin).The gavage administration of S. chinensis volume was 3 mL. A 200 μL blood sample was withdrawn from the right jugular vein […] into a heparin-rinsed vial at 5, 15, 30, 45, 60, 90, 120, 150, 180, 240, 360 and 480 min. Blood samples were centrifuged at 6000× g for 10 min at 4 °C. The biological samples were stored at −20 °C before analysis.\nEach blood sample (50 μL) was mixed with 1 mL of ethyl acetate and vortexed for 5 min. The mixture was centrifuged at 16000× g for 10 min at 4 °C. The supernatant (1 mL) was transferred to an Eppendorf vial and dried at 40 °C in a centrifugation evaporator. The dried sample was reconstituted in 190 μL of methanol and IS solution (methyl yellow, 5 ng/mL in methanol) and filtered through a 0.22 μm filter. Finally, the filtrate (10 μL) was applied to the UPLC-MS/MS system for analysis.\nThe LC–MS/MS analysis was performed using a Waters Acquity UPLC™ system (Waters Co., Manchester, UK) consisting of binary solvent manager, an automatic liquid chromatographic sampler and a Waters Xevo^TM tandem quadrupole mass spectrometry equipped with an electrospray ionization (ESI) source. The chromatography was performed on a Purospher® STAR RP-18 endcapped (100 mm × 2.1 mm, 2 μm, Merck KGaA, Darmstadt, Germany) analytical column and maintained at 40 °C in a column oven. The mobile phase consisted of 0.1% formic acid-methanol (15:85, v/v), and the flow rate was set at 0.2 mL/min. The injection volume was 10 μL. The positive ion mode with a multiple reaction monitor (MRM) was used for UPLC-MS/MS analysis. The following precursor-to-product ion transitions were used: m/z 433.22→415.19 for schizandrin and m/z 226.26→76.91 for methyl yellow (internal standard, IS).The instrument parameters were optimized as follows: capillary voltage, 3.2 kV; desolvation gas, nitrogen; desolvation temperature, 400 °C; desolvation gas flow rate, 800 L/h; cone voltage, 18 V; collision energy, 12 V and source temperature, 150 °C. MassLynx 4.1 software (Waters Corporation, Milford, MA, USA) was used for data processing.\nPharmacokinetic calculations were performed on each individual set of data using the pharmacokinetic software WinNonlin Standard Edition, version 1.1 (Scientific Consulting Inc., Apex, NC, USA) by noncompartmental methods for intravenous and oral administration. The results were analyzed using Student’s t-test and the SigmaPlot program (version 13). All data are presented as the mean ± standard deviation (SD)."}, "[4]": {"settings": "male, Sprague-Dawley, iv, schizandrin 10 mg/kg, rat plasma, n = 6"}, "[5]": {"settings": "male, Sprague-Dawley, po, schizandrin 10 mg/kg, rat plasma, n = 6"}, "[6]": {"settings": "schizandrin 10 mg/kg, p.o., rat plasma, n = 6"}},
  "note": "Like-named read-outs stand apart in the source and are kept apart here.",
  "data": [
    {"smiles": "COc1cc2c(c(OC)c1OC)-c1c(cc(OC)c(OC)c1OC)C[C@](C)(O)[C@@H](C)C2", "note": "[schizandrin]", "values": [
      {"measurement": "stability of stock solution", "setting": "[1]", "result": "stable"},
      {"measurement": "degradation in biological samples", "setting": "[2]; autosampler 24 h at 10 °C, 12 h at room temperature, 1 month at −80 °C, three freeze-thaw cycles", "result": "No significant degradation"},
      {"measurement": "Autosampler Stability", "setting": "[2]; 5 ng/mL", "result": "−1.78 ± 2.25"},
      {"measurement": "Short-Term Stability", "setting": "[2]; 5 ng/mL", "result": "−1.63 ± 8.36"},
      {"measurement": "Freeze-Thaw Stability", "setting": "[2]; 5 ng/mL, three freeze-thaw cycles", "result": "−8.04 ± 3.19"},
      {"measurement": "Long-Term Stability", "setting": "[2]; 5 ng/mL", "result": "−0.56 ± 0.39"},
      {"measurement": "Autosampler Stability", "setting": "[2]; 50 ng/mL", "result": "3.17 ± 3.19"},
      {"measurement": "Short-Term Stability", "setting": "[2]; 50 ng/mL", "result": "5.70 ± 4.52"},
      {"measurement": "Freeze-Thaw Stability", "setting": "[2]; 50 ng/mL, three freeze-thaw cycles", "result": "−5.16 ± 3.83"},
      {"measurement": "Long-Term Stability", "setting": "[2]; 50 ng/mL", "result": "−9.02 ± 0.40"},
      {"measurement": "Autosampler Stability", "setting": "[2]; 500 ng/mL", "result": "0.43 ± 0.12"},
      {"measurement": "Short-Term Stability", "setting": "[2]; 500 ng/mL", "result": "0.64 ± 0.08"},
      {"measurement": "Freeze-Thaw Stability", "setting": "[2]; 500 ng/mL, three freeze-thaw cycles", "result": "−0.63 ± 0.30"},
      {"measurement": "Long-Term Stability", "setting": "[2]; 500 ng/mL", "result": "−6.75 ± 6.39"},
      {"measurement": "concentration at 15 min", "setting": "[3]; male, Sprague-Dawley, intravenous, plasma sample from jugular vein of a rat at 15 min after 10 mg/kg, i.v. (Figure 2C)", "result": 31.8, "unit": "ng/mL"},
      {"measurement": "AUC", "setting": "[3]; [4]", "result": 718, "unit": "ng·h/mL"},
      {"measurement": "MRT", "setting": "[3]; [4]", "result": 0.58, "unit": "h"},
      {"measurement": "clearance", "setting": "[3]; [4]", "result": "240 ± 30", "unit": "mL/min/kg"},
      {"measurement": "half-life", "setting": "[3]; [4]", "result": "42.2 ± 14.8", "unit": "min"},
      {"measurement": "clearance", "setting": "[3]; male, Sprague-Dawley, plasma, schizandrin intravenous group (10 mg/kg), rat", "result": 90, "unit": "mL/min"},
      {"measurement": "AUC", "setting": "[3]; [5]", "result": 112, "unit": "ng·h/mL"},
      {"measurement": "Cmax", "setting": "[3]; [5]", "result": "60 ± 30", "unit": "ng/mL"},
      {"measurement": "MRT", "setting": "[3]; [5]", "result": 1.89, "unit": "h"},
      {"measurement": "half-life", "setting": "[3]; [5]", "result": "74.7 ± 33.6", "unit": "min"},
      {"measurement": "bioavailability", "setting": "[3]; male, Sprague-Dawley, rat, plasma, oral, 10 mg/kg, schizandrin 10 mg/kg, p.o. vs 10 mg/kg i.v., rat, read-out: F (bioavailability)", "result": "~15.6", "unit": "%"},
      {"measurement": "Tmax", "setting": "[3]; male, Sprague-Dawley, rat, plasma, po, 10 mg/kg, schizandrin 10 mg/kg, p.o., rat plasma, n = 6, read-out: Tmax", "result": "≤ 30", "unit": "min"},
      {"measurement": "clearance (CL)", "setting": "[3]; schizandrin 10 mg/kg orally, rat", "result": "0.34 ± 1.24", "unit": "L/min/kg"},
      {"measurement": "CL", "setting": "[3]; [6]", "result": "0.34 ± 1.24", "unit": "L/min/kg"},
      {"measurement": "Tmax", "setting": "[3]; [6]", "result": "22.50 ± 12.55", "unit": "min"}
    ]}
  ]
}
